# Assay results taken from ChEMBL document CHEMBL1201861, “Genomics of Drug Sensitity in Cancer screening data, Wellcome Trust Sanger Institute”.
# System: MDA-MB-415
# Experiment: cells
# Format: functional, cell-based
# Details: Homo sapiens
row,SMILES,IC50 [µM]
1,COc1ccc(-c2cc3nccn3c(Nc3ncccc3C(N)=O)n2)cc1OC,> 8

# System: CP66-MEL;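 also: growth inhibition of CP66-MEL cells determined in a cell viability assay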
# Experiment: cells
# Format: functional, cell-based
# Details: Homo sapiens
# Description: SANGER: Inhibition of human CP66-MEL cell growth in a cell viability assay.
row,SMILES,IC50 [µM]
1,COc1ccc(-c2cc3nccn3c(Nc3ncccc3C(N)=O)n2)cc1OC,> 8

# System: BL-70
# Experiment: SANGER: Inhibition of human BL-70 cell growth in a cell viability assay.
# Format: functional, cell-based
# Details: Homo sapiens, BL-70
row,SMILES,IC50 [µM]
1,COc1ccc(-c2cc3nccn3c(Nc3ncccc3C(N)=O)n2)cc1OC,0.671

# System: CAL-12T;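 also: growth inhibition of human CAL-12T cells, read out with a cell viability assay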
# Experiment: cells
# Format: functional, cell-based
# Details: Homo sapiens
# Description: SANGER: Inhibition of human CAL-12T cell growth in a cell viability assay.
row,SMILES,IC50 [µM]
1,COc1ccc(-c2cc3nccn3c(Nc3ncccc3C(N)=O)n2)cc1OC,0.496

# System: BT-20;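 also: cell viability assay measuring suppression of growth in human BT-20 cells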
# Experiment: cells
# Format: functional, cell-based
# Details: Homo sapiens
# Description: SANGER: Inhibition of human BT-20 cell growth in a cell viability assay.
row,SMILES,IC50 [µM]
1,COc1ccc(-c2cc3nccn3c(Nc3ncccc3C(N)=O)n2)cc1OC,> 8

# System: HT-1080
# Experiment: cells
# Format: functional, cell-based
# Details: Homo sapiens
# Description: SANGER: Inhibition of human HT-1080 cell growth in a cell viability assay.
row,SMILES,IC50 [µM]
1,COc1ccc(-c2cc3nccn3c(Nc3ncccc3C(N)=O)n2)cc1OC,3.23

# System: 8505C
# Experiment: cells
# Format: functional, cell-based
# Details: Homo sapiens
# Description: SANGER: Inhibition of human 8505C cell growth in a cell viability assay.
row,SMILES,IC50 [µM]
1,COc1ccc(-c2cc3nccn3c(Nc3ncccc3C(N)=O)n2)cc1OC,1.77

# System: NCI-H2171;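 also: growth inhibition of human NCI-H2171 cells, read out by a cell viability assay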
# Experiment: cells
# Format: functional, cell-based, Homo sapiens
# Details: Homo sapiens, NCI-H2171
# Description: SANGER: Inhibition of human NCI-H2171 cell growth in a cell viability assay.
row,SMILES,IC50 [µM]
1,COc1ccc(-c2cc3nccn3c(Nc3ncccc3C(N)=O)n2)cc1OC,> 8

# System: SJRH30;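 also: growth inhibition of human SJRH30 cells, read out with a cell viability assay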
# Experiment: cells
# Format: functional, cell-based
# Details: Homo sapiens
# Description: SANGER: Inhibition of human SJRH30 cell growth in a cell viability assay.
row,SMILES,IC50 [µM]
1,COc1ccc(-c2cc3nccn3c(Nc3ncccc3C(N)=O)n2)cc1OC,> 8

# System: COLO-678
# Experiment: cells
# Format: functional, cell-based
# Details: Homo sapiens
# Description: SANGER: Inhibition of human COLO-678 cell growth in a cell viability assay.
row,SMILES,IC50 [µM]
1,COc1ccc(-c2cc3nccn3c(Nc3ncccc3C(N)=O)n2)cc1OC,> 8

# System: NCI-H345;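 also: growth inhibition of NCI-H345 cells measured with a cell viability assay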
# Experiment: cells
# Format: functional, cell-based, Homo sapiens
# Details: Homo sapiens, NCI-H345
# Description: SANGER: Inhibition of human NCI-H345 cell growth in a cell viability assay.
row,SMILES,IC50 [µM]
1,COc1ccc(-c2cc3nccn3c(Nc3ncccc3C(N)=O)n2)cc1OC,> 8

# System: SK-MM-2;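 also: growth inhibition of human SK-MM-2 cells, read out with a cell viability assay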
# Experiment: cells
# Format: functional, cell-based, Homo sapiens
# Details: Homo sapiens, SK-MM-2
# Description: SANGER: Inhibition of human SK-MM-2 cell growth in a cell viability assay.
row,SMILES,IC50 [µM]
1,COc1ccc(-c2cc3nccn3c(Nc3ncccc3C(N)=O)n2)cc1OC,> 8

# System: NCI-H1522;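 also: growth inhibition of NCI-H1522 cells, read out with a cell viability assay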
# Experiment: cells
# Format: functional, cell-based, Homo sapiens
# Details: Homo sapiens, NCI-H1522
# Description: SANGER: Inhibition of human NCI-H1522 cell growth in a cell viability assay.
row,SMILES,IC50 [µM]
1,COc1ccc(-c2cc3nccn3c(Nc3ncccc3C(N)=O)n2)cc1OC,> 8

# System: PANC-03-27
# Experiment: cells
# Format: functional, cell-based
# Details: Homo sapiens
# Description: SANGER: Inhibition of human PANC-03-27 cell growth in a cell viability assay.
row,SMILES,IC50 [µM]
1,COc1ccc(-c2cc3nccn3c(Nc3ncccc3C(N)=O)n2)cc1OC,5.56

# System: SW756;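 also: growth inhibition of human SW756 cells, read out with a cell viability assay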
# Experiment: cells
# Format: functional, cell-based
# Details: Homo sapiens
# Description: SANGER: Inhibition of human SW756 cell growth in a cell viability assay.
row,SMILES,IC50 [µM]
1,COc1ccc(-c2cc3nccn3c(Nc3ncccc3C(N)=O)n2)cc1OC,> 8

# System: COLO-680N;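 also: cell viability assay used to measure inhibition of COLO-680N cell growth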
# Experiment: cells
# Format: functional, cell-based
# Details: Homo sapiens
# Description: SANGER: Inhibition of human COLO-680N cell growth in a cell viability assay.
row,SMILES,IC50 [µM]
1,COc1ccc(-c2cc3nccn3c(Nc3ncccc3C(N)=O)n2)cc1OC,> 8

# System: COR-L105
# Experiment: cells
# Format: functional, cell-based
# Details: Homo sapiens
# Description: SANGER: Inhibition of human COR-L105 cell growth in a cell viability assay.
row,SMILES,IC50 [µM]
1,COc1ccc(-c2cc3nccn3c(Nc3ncccc3C(N)=O)n2)cc1OC,1.14

# System: Hs-578T
# Experiment: cells
# Format: functional, cell-based
# Details: Homo sapiens
# Description: SANGER: Inhibition of human Hs-578-T cell growth in a cell viability assay.
row,SMILES,IC50 [µM]
1,COc1ccc(-c2cc3nccn3c(Nc3ncccc3C(N)=O)n2)cc1OC,> 8

# System: MC-CAR;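 also: growth inhibition of the human MC-CAR cell line, read out by a cell viability assay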
# Experiment: cells
# Format: functional, cell-based, Homo sapiens
# Details: Homo sapiens, MC-CAR
# Description: SANGER: Inhibition of human MC-CAR cell growth in a cell viability assay.
row,SMILES,IC50 [µM]
1,COc1ccc(-c2cc3nccn3c(Nc3ncccc3C(N)=O)n2)cc1OC,1.14

# System: SKG-IIIa;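 also: cell growth inhibition, read out with a cell viability assay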
# Experiment: cells
# Format: functional, cell-based
# Details: Homo sapiens
# Description: SANGER: Inhibition of human SKG-IIIa cell growth in a cell viability assay.
row,SMILES,IC50 [µM]
1,COc1ccc(-c2cc3nccn3c(Nc3ncccc3C(N)=O)n2)cc1OC,> 8

# System: YAPC;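 also: growth inhibition of YAPC cells, measured with a cell viability assay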
# Experiment: cells
# Format: functional, cell-based
# Details: Homo sapiens
# Description: SANGER: Inhibition of human YAPC cell growth in a cell viability assay.
row,SMILES,IC50 [µM]
1,COc1ccc(-c2cc3nccn3c(Nc3ncccc3C(N)=O)n2)cc1OC,> 8

# System: AN3-CA;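 also: growth inhibition of human AN3-CA cells measured by a cell viability assay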
# Experiment: cells
# Format: functional, cell-based
# Details: Homo sapiens
# Description: SANGER: Inhibition of human AN3-CA cell growth in a cell viability assay.
row,SMILES,IC50 [µM]
1,COc1ccc(-c2cc3nccn3c(Nc3ncccc3C(N)=O)n2)cc1OC,4.66

# System: HSC-4;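 also: growth inhibition of human HSC-4 cells, read out with a cell viability assay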
# Experiment: cells
# Format: functional, cell-based
# Details: Homo sapiens
# Description: SANGER: Inhibition of human HSC-4 cell growth in a cell viability assay.
row,SMILES,IC50 [µM]
1,COc1ccc(-c2cc3nccn3c(Nc3ncccc3C(N)=O)n2)cc1OC,> 8

# System: HCC1419;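 also: growth inhibition of human HCC1419 cells, read out as cell viability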
# Experiment: cells
# Format: functional, cell-based
# Details: Homo sapiens
# Description: SANGER: Inhibition of human HCC1419 cell growth in a cell viability assay.
row,SMILES,IC50 [µM]
1,COc1ccc(-c2cc3nccn3c(Nc3ncccc3C(N)=O)n2)cc1OC,> 8

# System: NCI-H2009;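 also: cell viability assay measuring inhibition of NCI-H2009 cell growth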
# Experiment: cells
# Format: functional, cell-based
# Details: Homo sapiens
# Description: SANGER: Inhibition of human NCI-H2009 cell growth in a cell viability assay.
row,SMILES,IC50 [µM]
1,COc1ccc(-c2cc3nccn3c(Nc3ncccc3C(N)=O)n2)cc1OC,> 8

# System: NUGC-3;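 also: growth inhibition of human NUGC-3 cells, read out with a cell viability assay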
# Experiment: cells
# Format: functional, cell-based
# Details: Homo sapiens
# Description: SANGER: Inhibition of human NUGC-3 cell growth in a cell viability assay.
row,SMILES,IC50 [µM]
1,COc1ccc(-c2cc3nccn3c(Nc3ncccc3C(N)=O)n2)cc1OC,> 8

# System: G-361
# Experiment: cells
# Format: functional, cell-based
# Details: Homo sapiens
row,SMILES,IC50 [µM]
1,COc1ccc(-c2cc3nccn3c(Nc3ncccc3C(N)=O)n2)cc1OC,4.3

# System: DBTRG-05MG;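 also: cell viability assay measuring growth inhibition of human DBTRG-05MG cells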
# Experiment: cells
# Format: functional, cell-based
# Details: Homo sapiens
# Description: SANGER: Inhibition of human DBTRG-05MG cell growth in a cell viability assay.
row,SMILES,IC50 [µM]
1,COc1ccc(-c2cc3nccn3c(Nc3ncccc3C(N)=O)n2)cc1OC,> 8

# System: TE-441-T
# Experiment: cells
# Format: functional, cell-based, Homo sapiens
# Details: Homo sapiens, TE-441-T
# Description: SANGER: Inhibition of human TE-441-T cell growth in a cell viability assay.
row,SMILES,IC50 [µM]
1,COc1ccc(-c2cc3nccn3c(Nc3ncccc3C(N)=O)n2)cc1OC,3.96
